Drawing on patent publication US20250059141A1, “TLR MODULATOR AND USE THEREOF” (DUALITY BIOLOGICS (SUZHOU) CO., LTD., priority 2021, published 2025), this text covers EC50 for four compounds.

For test [1], the target named is T1, hTLR7 (human Toll-like receptor 7) (Homo sapiens, UniProt Q9NYK1).
T1 construct: host or cells: HEK-Blue hTLR7 (HEK293-derived reporter cells)
T1 sequence (Q9NYK1 27-1049): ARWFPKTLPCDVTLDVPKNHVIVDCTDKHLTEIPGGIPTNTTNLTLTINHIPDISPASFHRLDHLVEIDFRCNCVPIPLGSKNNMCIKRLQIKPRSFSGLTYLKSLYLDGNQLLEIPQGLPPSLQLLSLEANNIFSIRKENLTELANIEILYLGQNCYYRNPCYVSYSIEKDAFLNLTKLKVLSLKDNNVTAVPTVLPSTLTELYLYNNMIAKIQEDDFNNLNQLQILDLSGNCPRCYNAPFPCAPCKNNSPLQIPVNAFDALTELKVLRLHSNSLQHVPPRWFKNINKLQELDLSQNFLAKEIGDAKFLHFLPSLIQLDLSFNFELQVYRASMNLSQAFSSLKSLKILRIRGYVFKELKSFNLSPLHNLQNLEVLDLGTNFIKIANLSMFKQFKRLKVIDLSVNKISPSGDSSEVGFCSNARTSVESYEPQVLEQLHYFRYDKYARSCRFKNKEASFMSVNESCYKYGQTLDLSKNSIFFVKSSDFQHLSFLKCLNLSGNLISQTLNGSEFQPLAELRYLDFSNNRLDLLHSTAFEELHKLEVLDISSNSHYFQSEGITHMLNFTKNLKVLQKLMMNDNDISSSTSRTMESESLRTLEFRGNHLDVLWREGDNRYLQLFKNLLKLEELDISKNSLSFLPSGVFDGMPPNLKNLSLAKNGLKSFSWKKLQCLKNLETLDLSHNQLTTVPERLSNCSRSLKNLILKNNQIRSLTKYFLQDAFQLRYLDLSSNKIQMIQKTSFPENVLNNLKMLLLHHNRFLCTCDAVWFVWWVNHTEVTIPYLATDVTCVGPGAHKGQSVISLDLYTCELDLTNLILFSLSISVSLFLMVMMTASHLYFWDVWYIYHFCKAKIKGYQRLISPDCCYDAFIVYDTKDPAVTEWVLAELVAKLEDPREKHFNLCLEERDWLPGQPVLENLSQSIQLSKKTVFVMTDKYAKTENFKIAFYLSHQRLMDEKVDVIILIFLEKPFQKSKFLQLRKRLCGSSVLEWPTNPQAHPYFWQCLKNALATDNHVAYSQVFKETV
In words: HEK-Blue hTLR7 reporter assay (QUANTI-Blue, OD650). In kind it is cell-based. The note with it: HEK-Blue hTLR7 cells, 24 h; class symbols; read-out: Reporter assay TLR7 EC50. (In general: Reporter assays use an easily measured gene product as a stand-in for the process of interest.)

In test [2] the test system is IFN-α production in human PBMCs. In words: Induction of IFN-α in human PBMCs (ELISA). The format is cell-based. The note with it: PBMC, 24 h, serial 4-fold dilutions, class symbols, read-out: PBMC assay IFNa EC50. The method, then: In this example, the induction activity of the compounds of the present application on human PBMCs for TNF-α and IFN-α production was assessed in human PBMCs (human peripheral blood mononuclear cells). The human PBMCs were purchased from Shanghai Saily Biotechnology Co., Ltd. (Cat. No. XFB—HP100B). PBMC cells were treated with the compounds. The compounds of the present application are diluted in DMSO, for example, to about 15 mM. The reference compound was added to the plates in sequence after diluted to 5 mg/mL. The compounds were serially 3- or 4-fold diluted to 8 concentrations and added to plates in duplicate (Table 2-1 for serial 3-fold dilutions and Table 2-2 for serial 4-fold dilutions). For the negative control wells, DMSO was added at 0.4 μL/well, and a 5 mg/mL reference compound solution was added to the positive control wells at 0.4 μL/well. The final concentration of DMSO was 0.2%. Frozen human PBMCs in cryopreservation tubes were quickly thawed in a 37° C. water bath and transferred into 50-mL centrifuge tubes. Prewarmed RPMI1640 medium was gradually added and the mixture was well mixed and centrifuged for 15 min before the supernatant was discarded. The cells were resuspended in a culture medium and counted. The cell suspension was adjusted to 2.5×10^6 cells/mL with the culture medium. Diluted cells were added at 200 μL/500,000 cells/well in 96-well plates containing the compounds. The cell plates were incubated at 37° C./5% CO2 for 24 h.
The plate was washed 4 times, then the detection antibody was added. […] The plate was washed 4 additional times, then the enzyme was added. […] Termination of reaction: The reaction was terminated by quickly adding the stop solution at 100 μL/well. Plate reading: The reading at wavelength 450 nm was detected by an M2e instrument within 10 min after the termination.
Compound activity data analysis: The OD450 values were converted to TNF-α and IFN-α contents by GraphPad Prism software analysis and fitted to give dose-response curves of the compounds. The EC50 values for the compounds were calculated, where the Emax values are the maximal values for TNF-α and IFN-α.

What is called EC50 is the concentration at which the effect is half-maximal. As for `CCCN(OCc1ccc(N)cc1)C(=O)C1=Cc2ccc(C(=O)N3CCN(C)CC3)cc2N=C(N)C1` [Compound 93], the EC50 is more than 1000 nM in test [1] and 50 to 500 nM in test [2].

Regarding `CCCN(OCc1ccc(N)cc1)C(=O)C1=Cc2ccc(C(=O)N3CC(Oc4ccccc4)C3)cc2N=C(N)C1` [Compound 94], the EC50 is 100 to 1000 nM in test [1] and 50 to 500 nM in test [2].

Consider `CCCN(OCc1ccc(N)cc1)C(=O)C1=Cc2ccc(C(=O)N3CC4(COC4)C3)cc2N=C(N)C1` [Compound 95], for which the EC50 in test [1] is more than 1000 nM; in test [2], 50 to 500 nM.

For the compound `CCCN(OCc1ccc(N)cc1)C(=O)C1=Cc2ccc(C(=O)N3CCN(c4ccccc4)CC3)cc2N=C(N)C1` [Compound 97], the concentration giving a half-maximal response (EC50) in test [1] was more than 1000 nM; in test [2], more than 500 nM.
